According to article PMC7495481, “Sequence specificity analysis of the SETD2 protein lysine methyltransferase and discovery of a SETD2 super-substrate” (Communications Biology, 2020):

Key:
SETD2 [1] = biological target: T1, SETD2 (Homo sapiens, UniProt Q9BYW2); assay: Peptide SPOT array methylation of H3K36 (29–43) variants, super-substrate design (Fig. 2a); format: biochemical
T1 construct: SETD2 catalytic SET domain (amino acids 1347–1711, UniProt No: Q9BYW2); made in house; host or cells: E. coli
T1 sequence (Q9BYW2 1347-1711): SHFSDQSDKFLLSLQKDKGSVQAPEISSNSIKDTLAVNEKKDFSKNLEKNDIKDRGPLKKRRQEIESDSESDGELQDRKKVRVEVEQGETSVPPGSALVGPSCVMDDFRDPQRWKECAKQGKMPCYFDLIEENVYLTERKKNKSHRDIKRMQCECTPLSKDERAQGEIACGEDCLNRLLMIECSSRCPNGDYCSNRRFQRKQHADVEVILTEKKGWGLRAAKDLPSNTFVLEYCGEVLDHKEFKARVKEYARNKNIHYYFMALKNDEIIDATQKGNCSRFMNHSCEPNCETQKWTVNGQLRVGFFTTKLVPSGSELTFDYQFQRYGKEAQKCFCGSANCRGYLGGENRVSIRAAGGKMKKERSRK
Source text: Based on these observations, we aimed to explore, if better substrates than H3K36 can be designed for SETD2. We synthesized peptide SPOT arrays including H3K36 (29–43) as a positive control and the H3K36A mutant as a negative control, in which up to 5 combined mutations were systematically introduced that converted the original H3K36 residues into residues that are more favored (Fig. 2a and Supplementary Table 1). This peptide array was methylated by SETD2 as described above and the methylation signal was captured by autoradiography.
Fig. 2 Design of an optimized SETD2 peptide substrate and analysis of its methylation. a Variants of the H3K36 (29–43) peptide containing up to five mutations (Supplementary Table 1) were synthesized on a cellulose membrane and methylated by SETD2. The signal of the transferred radioactive methyl groups was detected by autoradiography. Spots A1 and B15 contain the H3K36 sequence, A2 and B16 the H3K36A peptide. Two films with different exposure times are shown to visualize weaker methylated spots as well. b Comparison of the methylation of purified super-substrate (ssK36) and the H3K36 peptides. […] Methylation reactions were conducted using 20 µM peptide and 6 µM enzyme. The lower panels display autoradiography films after different exposure times allowing to compare the methylation levels of the different samples. For comparison, different dilutions of the methylated ssK36 were loaded as indicated. c Time course of ssK36 peptide methylation determined under single turnover conditions using 5 µM substrate and 6 µM enzyme. […] The gels with the radioactive ssK36 (5 µl loaded per well) and H3K36 peptides (20 µl loaded per well) were exposed together to the same x-ray film. […] An enlargement of the H3K36 data with adjusted y-axis scale is shown in Supplementary Fig. 3d.
Peptide arrays containing fifteen amino acid long peptides were synthesized using the SPOT synthesis method[48] with an Autospot peptide array synthesizer (Intavis AG, Köln, Germany). After synthesis, the obtained membranes were pre-incubated in methylation buffer (20 mM Tris/HCl pH 9, 0.01% Triton X-100, 10 mM DTT, 1.5 mM MgCl2) for 5 min on a shaker. Thereafter, the membranes were incubated in methylation buffer supplemented with 0.76 µM radioactively labeled AdoMet (PerkinElmer) and 3–6 µM SETD2 enzyme for 60 min on a shaker. After methylation, the membranes were washed 5 times for 5 min in wash buffer (100 mM NH4HCO3, 1% SDS) and incubated in amplify NAMP100V (GE Healthcare) for 5 min. This was followed by the exposure of the membranes to a hyperfilm^TM high performance autoradiography (GE Healthcare) film at −80 °C in the dark. The films were developed with an Optimax Typ TR machine after different exposue times. For quantification the signal intensities were measured with the Phoretix^TM software and analyzed with Microsoft Excel.

SETD2 [2] = biological target: T1, SETD2; assay: Time courses of methylation of ssK36 and H3K36 compared (initial slopes); format: biochemical; conditions: 20 µM substrate, 6 µM enzyme; two experiments, average ± SEM
Source text: Fig. 2 Design of an optimized SETD2 peptide substrate and analysis of its methylation. a Variants of the H3K36 (29–43) peptide containing up to five mutations (Supplementary Table 1) were synthesized on a cellulose membrane and methylated by SETD2. The signal of the transferred radioactive methyl groups was detected by autoradiography. Spots A1 and B15 contain the H3K36 sequence, A2 and B16 the H3K36A peptide. Two films with different exposure times are shown to visualize weaker methylated spots as well. b Comparison of the methylation of purified super-substrate (ssK36) and the H3K36 peptides. […] Methylation reactions were conducted using 20 µM peptide and 6 µM enzyme. […]
The H3K36 (27–43) and the H3K36M (27–43) peptides were purchased from Intavis AG (Köln, Germany) and the ssK36 peptide (29–43) and the ssK36M peptide (29–43) were from Innovative Peptide Solutions (Berlin, Germany). […] The signals of the transferred radioactive labeled methyl groups were detected by autoradiography using a hyperfilm^TM high performance autoradiography film (GE Healthcare) at −80 °C in the dark. […]
Time courses of ssK36 methylation were analyzed by fitting to an exponential reaction progress curve (Eq. 1). Initial rates of single turnover reactions were determined using the first derivative of eq. […]

“APRFGGVKRPNRYRP [ssK36, super-substrate peptide with four amino acid exchanges (A31R, T32F, K37R, H39N)]” was tested, and the “peptide array methylation of H3K36 variants (in words)” value (SETD2 [1]; SPOT array, 0.76 µM radioactive AdoMet, 3–6 µM SETD2, 60 min, pH 9, autoradiography) was “one of the most strongly methylated peptides”, the “fold stronger methylation of ssK36 than H3K36” value (SETD2 [1]; densitometric analysis of 5 pairs of H3K36 and ssK36 spots on independent arrays, ± SD) was 70 ± 10 fold and the “fold higher initial slope for ssK36 methylation vs H3K36” value (SETD2 [2]) was 290 ± 70 fold.
